{"source": "patent US20060293293A1", "about": "“Salmeterol and ciclesonide combination” (Altana Pharma AG, priority 2003, published 2006)", "origin": "cited, not measured here", "key": {"[1]": {"settings": "compared with budesonide"}}}
{"smiles": "CC(C)C(=O)OCC(=O)[C@@]12O[C@H](C3CCCCC3)O[C@@H]1C[C@H]1[C@@H]3CCC4=CC(=O)C=C[C@]4(C)[C@H]3[C@@H](O)C[C@@]12C", "note": "[Ciclesonide, [11β,16α(R)]-16,17[(Cyclohexylmethylen)bis(oxy)]-11-hydroxy-21-(2-methyl-1-oxoprop-oxy)pregna-1,4dien-3,20-dion]", "values": [{"measurement": "metabolism by liver oxidases", "setting": "liver oxidases", "result": "very high"}, {"measurement": "concentration of the drug in the lungs", "setting": "lungs", "result": "high"}, {"measurement": "absorption after oral administration", "setting": "oral administration", "result": "only moderately absorbed"}, {"measurement": "plasma half-life", "setting": "plasma", "result": "low plasma half-life"}, {"measurement": "anti-inflammatory activity relative to budesonide", "setting": "[1]", "result": "higher"}, {"measurement": "systemic activity relative to budesonide", "setting": "[1]", "result": "three times lower"}]}
